# Columns and labels:
# Assay type in all cases: in vivo, Xenopus tropicalis
# [1] = system: animal pole cells (prospective ectoderm); test: Intracellular Vm recordings in animal pole cells; conditions: stage 10 (gastrulation onset), animal pole, MO injected embryos
# Description: For recordings, devitellinized, stage 10 kcnh6 or control MO injected embryos were mounted into non-toxic clay with their animal pole exposed and covered with 1/9×MR. To investigate the resting potential, animal pole cells were impaled with a high-impedance (˜70 Me), sharp microelectrode filled with 3 M KCl for intracellular recordings. The recordings were made using an Axon 200B amplifier and digitized using a Digidata 1320 digitizer. Jclamp software for Windows was used in current clamp mode. All electrodes were zeroed just before entry into the cells.
# For the series of intracellular recordings in high K^+ and choline treated embryos, stage 8-9 embryos were impaled similarly with an electrode of […]. These recordings were made using a HEKA EPC10 amplifier. The present study used HEKA PatchMaster v2x67 software for Windows. […]
# In experiments where embryos were evaluated for phenotypes and scored (gastrulation, left-right patterning, in situ hybridizations) the present study carried out three to five biological replicates and Fisher's exact test to evaluate statistical significance. […] For the calcium transient analyses, data was collected from three to five embryos in each experiment in three independent experiments, and statistical analyses on GCaMP/mCherry fluorescence intensity as well as Ca^2+ transient area were performed using student's t-test. […]
# [2] = system: animal pole of stage 10 embryos; test: Calcium imaging (GCaMP6/mCherry) of the animal pole; conditions: stage 10, 20 s time lapse
# Description: GCaMP6 and mCherry mRNAs were mixed and injected into embryos at the one-cell stage. Half of these embryos were then injected with kcnh6 MO and the other half with control MO, still at the one-cell stage. Embryos were transferred at stage 10 into the round wells of a press-to-seal silicone isolator (Sigma 53685) mounted between two cover slips in 2% Methylcellulose- 1/9×MR. GcaMP6 and mCherry fluorescence was then captured for 20s (1 frame per second) via time lapse in the whole animal pole of each embryo with a 20× objective of an LSM710 confocal microscope using identical acquisition settings across Control MO and kcnh6 MO embryos. […] However, all embryos did display transient increases in GcaMP6 fluorescence, varying in intensity and spreading to multiple cells. The frames of each recording were sorted to identify the calcium transient peak (in area), and GcAMP6 fluorescence intensity was quantified at peak as a ratio to mCherry in mCherry+ cells. The maximum Ca′ transient area was calculated by demarcating in Fuji the GCaMP6(+) vs GcaMP6(−) area of the animal pole at transient peak. […]
# In experiments where embryos were evaluated for phenotypes and scored (gastrulation, left-right patterning, in situ hybridizations) the present study carried out three to five biological replicates and Fisher's exact test to evaluate statistical significance. […]
# Xenopus embryos = test: Whole mount in situ hybridization for germ layer and pluripotency markers
# Description: In order to generate a full-length antisense probe for X. tropicalis kcnh6, kcnh6 cDNA was cloned from stage 45 tadpole whole mRNA using primers […] ID NO:10) and […] ID NO:11) (XM_012952904.1). It was noted that kcnh6 had been misannotated as kcnh2 in the v7.1 model of the X. tropicalis genome (The present study used NCBI Annotation XP_012808358.2 to identify KCNH6). […] GRPs were dissected post fixation and prior to dehydration to detect dandy. To detect putative gene expression in the prospective endoderm (mixer, vegT, kcnh6) gastrula stage embryos were bisected to facilitate better probe access. Briefly, whole mount in situ hybridization of digoxigenin-labeled antisense probes was performed overnight, the labelled embryos were then washed, incubated with anti-digoxigenin-AP Fab fragments (Roche 11093274910), and signal was detected using BM-purple (Roche 11442074001). Normal embryonic medium is 1/9× modified Ringer's (MR) containing 11 mM NaCl, 0.2 mM KCl, 0.2 mM CaCl2), 0.1 mM Mg2Cl and 0.55 mM HEPES. […] For extracellular K^+ manipulations, the KCl concentration in 1/9×MR was modified from 0.2 mM (normal) to 20 mM (high) or 0 mM (low). […] For rapamycin, the present study created a standard stock solution of 50 mg/ml in DMSO. The stock solution was diluted 1:2500 in the appropriate embryonic media (final 20 μg/ml). […] In experiments where embryos were evaluated for phenotypes and scored (gastrulation, left-right patterning, in situ hybridizations) the present study carried out three to five biological replicates and Fisher's exact test to evaluate statistical significance. The animal cap experiment was performed twice with a total score of four to eight animal caps per experiment. […] For whole cell electrophysiological recordings, three to five embryos (two cells each) were examined for their membrane potential and statistical significance was tested by student's t-test. Graphs were designed using GraphPad Prism software. Models were created with BioRender.com.
substance,measurement,setting,value
"kcnh6 MO: kcnh6 translation blocking morpholino oligonucleotide, 5′-GGTCCTCGAAGTTTAGGATAAACAT-3′, SEQ ID NO:1 (all phosphorodiamidate morpholino (PMO))",Vm,[1],−21.8±4.6 mV
same,"animal pole area simultaneously affected by Ca^2+ transients, average",[2],71±11%
same,animal pole area with simultaneous calcium increases in most embryos,[2],> 90%
same,embryos with myf5 lost,Xenopus embryos; kcnh6 depleted embryos treated only with DMSO,35±5%
same,embryos with absent ectodermin,Xenopus embryos; kcnh6 depleted embryos treated with DMSO,51±6%

# Source: US20240018470A1, “METHOD OF MANIPULATING PLURIPOTENCY IN CELLS” (YALE UNIVERSITY, priority 2022, published 2024)
